# Data reported in ChEMBL document CHEMBL4400517, “Marine natural products as potential anti-tubercular agents” (Eur J Med Chem, 2019).
# pIC50: −log10 of the molar value.
# System: Mycobacterium tuberculosis
# Assay: Antimycobacterial activity against Mycobacterium tuberculosis H37Rv
# Format: functional, organism-based
# Details: not given
Compound,MIC,pIC50
C=C(CC[C@@H](C)[C@H]1CC[C@H]2[C@@H]3C(C=O)=C4C[C@@H](O)CC[C@]4(C)[C@H]3CC[C@]12C)C(C)C [PARGUESTEROL A],18.9 µM,
COC(=O)N[C@H]1[C@@H](C)O[C@@H](O[C@H]2C/C=C(\C)[C@@H]3C=C[C@@H]4[C@@H](O[C@@H]5C[C@@H](O[C@@H]6C[C@@H](O)[C@@H](O[C@H]7C[C@@H](C)[C@H](OC)[C@H](O)C7)[C@H](C)O6)[C@@H](O)[C@H](C)O5)[C@@H](C)C[C@H](C)[C@H]4[C@]3(C)C(=O)C3=C(O)[C@@]4(C[C@@H](C)C(CO)=C[C@H]4/C=C/2C)OC3=O)C[C@]1(C)[N+](=O)[O-],13.5 µM,
CO[C@H]1/C=C/O[C@@]2(C)Oc3c(C)c(O)c4c(O)c(c(/C=N/N5CCN(C)CC5)c(O)c4c3C2=O)NC(=O)/C(C)=C\C=C\[C@H](C)[C@H](O)[C@@H](C)[C@@H](O)[C@@H](C)[C@H](OC(C)=O)[C@@H]1C [RIFAMPIN],,6.26
O=C1CCCN2[C@@H](CC1)C[C@]13CN4CCCC/C=C\CC[C@](O)(C=C(c5nccc6c5[nH]c5c(O)cccc56)[C@@H]1CC4)[C@H]23,0.69 µM,
CC(=O)O[C@H]1C[C@H]2[C@]3(C)CC[C@H]4C(C)(C)CCC[C@]4(C)[C@H]3C[C@@H](O)[C@]2(C)[C@@H]2C1=CC[C@H]2OC(C)=O,12.8 µM,5.57
O[C@]12C=C(c3nccc4c3[nH]c3ccccc34)[C@@H]3CCN(CCCC/C=C\CC1)C[C@@]31C[C@@H]3/C=C\CCCCN3[C@H]12 [MANZAMINE A],1.64 µM,
O=CC1=C[C@@]2(O)CC/C=C\CCCCN3CC[C@@H]1[C@]1(C[C@@H]4/C=C\CCCCN4[C@H]12)C3 [IRCINAL],73.7 µM,
C=C(CC[C@@H](C)[C@H]1CC[C@H]2[C@@H]3[C@@H](C=O)[C@]4(O)C[C@@H](O)CC[C@]4(C)[C@H]3CC[C@]12C)C(C)C,26.1 µM,
C=C(CC[C@@H](C)[C@H]1CC[C@H]2[C@@H]3CC=C4C[C@@H](O)CC[C@]4(C)[C@H]3CC[C@]12C)C(C)C,302 µM,
O=C1CCCN2[C@@H](CC1)C[C@]13CN4CCCC/C=C\CC[C@](O)(C=C(c5nccc6c5[nH]c5ccccc56)[C@@H]1CC4)[C@H]23,6.74 µM,
O=C1CCCN2[C@@H](CC1)C[C@]13CN4CCCC/C=C\CC[C@](O)(C=C(c5nccc6c5[nH]c5ccc(O)cc56)[C@@H]1CC4)[C@H]23,52.1 µM,
CC(=O)O[C@H]1C[C@@]2(C)[C@@H](CC[C@H]3[C@@]4(C)C=CC(=O)[C@@H](C)C4[C@H](OC(C)=O)C(=O)[C@@]32C)/C1=C(\CCC=C(C)C)C(=O)O (stereo partly specified),0.89 µM,
COC(=O)N[C@H]1[C@@H](C)O[C@@H](O[C@H]2C/C=C(\C)[C@@H]3C=C[C@@H]4[C@@H](O[C@@H]5C[C@@H](O[C@@H]6C[C@@H](O)[C@@H](O[C@H]7C[C@@H](C)[C@H](OC)[C@H](O)C7)[C@H](C)O6)[C@@H](O)[C@H](C)O5)[C@@H](C)C[C@H](C)[C@H]4[C@]3(C)C(=O)C3=C(O)[C@@]4(C[C@@H](C)C(COC(C)=O)=C[C@H]4/C=C/2C)OC3=O)C[C@]1(C)N,26.7 µM,
COC(=O)N[C@H]1[C@@H](C)O[C@@H](O[C@H]2C/C=C(\C)[C@@H]3C=C[C@@H]4[C@@H](O[C@@H]5C[C@@H](O[C@@H]6C[C@@H](O)[C@@H](O[C@H]7C[C@@H](C)[C@H](OC)[C@H](O)C7)[C@H](C)O6)[C@@H](O)[C@H](C)O5)[C@@H](C)C[C@H](C)[C@H]4[C@]3(C)C(=O)C3=C(O)[C@@]4(C[C@@H](C)C(CO)=C[C@H]4/C=C/2C)OC3=O)C[C@]1(C)N,27.7 µM,
COC(=O)/C1=C/c2c([nH]c3ccccc23)/C(C(=O)OC)=C\c2c1[nH]c1ccccc21 [CAULERPIN],,6.62

# System: Mycobacterium tuberculosis
# Assay: Antimycobacterial activity against Mycobacterium tuberculosis H37Ra
# Format: functional
# Details: not given
row,Compound,MIC
1,C1=C\CCCCN2C[C@H]3CCCC/C=C\CCCCN4CC[C@@H]([C@H](CCCCCC/1)C4)[C@H](C3)C2 (relative stereo),5.34 µM
2,C1=C\CCCC[C@@H]2CN3CCCC/C=C\CCCC[C@H]4C[C@H](CN(CCCCCC/1)C4)[C@H]2CC3 (relative stereo),2.14 µM

# System: Mycobacterium tuberculosis
# Assay: Antimycobacterial activity against Mycobacterium tuberculosis
# Format: functional
# Details: not given
row,Compound,MIC
1,COC(=O)c1c(C)cc2c(c1O)[C@@]1(O)C(=O)c3cc4c(c(O)c3C(=O)[C@@]1(OC)CC2)C(=O)C=C(N[C@H]1O[C@@H](C)[C@H](O)[C@@H](O)[C@H]1OC)C4=O,1.5 µM
2,CSC1=CC2=C(C(=O)c3ccc([C@H]4C[C@@H](O)[C@H](O[C@H]5CC[C@H](O[C@H]6C[C@@H](O)[C@H](O)[C@@H](C)O6)[C@H](C)O5)[C@@H](C)O4)c(O)c3C2=O)[C@@]2(O[C@H]3CC[C@H](O)[C@H](C)O3)C(=O)C[C@](C)(O)C[C@@]12O,14 µM
3,Cc1cc(O)c2c3c(ccc2c1)C(=O)c1c(ccc([C@H]2C[C@@H](O)[C@H](O)[C@@H](C)O2)c1O)C3=O,14.4 µM
4,CSC1=CC2=C(C(=O)c3ccc([C@H]4C[C@@H](O)[C@H](O)[C@@H](C)O4)c(O)c3C2=O)[C@@]2(O)C(=O)C=C(C)C[C@@]12O,24.3 µM
5,COC1=C(Br)C(O)[C@@]2(C=C1Br)CC(C(=O)NCCCCNC(=O)C1=NO[C@]3(C=C(Br)C(OC)=C(Br)C3O)C1)=NO2 (stereo partly specified),7.99 µM
6,CSC1=CC2=C(C(=O)c3ccc([C@H]4C[C@@H](O)[C@H](O)[C@@H](C)O4)c(O)c3C2=O)[C@@]2(O)C(=O)C[C@](C)(O)C[C@@]12O,5.88 µM

# System: Mycobacterium tuberculosis
# Assay: Antimycobacterial activity against Mycobacterium tuberculosis H37Rv assessed as inhibition of mycobacterial growth at 12.5 ug/ml relative to control
# Format: functional
# Details: not given
row,Compound,inhibition at 12.5 µg/mL
1,CC1(C)CCC[C@]2(C)[C@H]3[C@H](C#N)c4cc(O)c(O)cc4O[C@@]3(C)CC[C@@H]12,96%
2,CC1(C)CCC[C@]2(C)[C@H]3C=C4C=C(O)C(=O)C=C4O[C@@]3(C)CC[C@@H]12 [PUUPEHENONE],99%
3,CC(C)=CCC[C@H](C)[C@H]1CC[C@@H](C)c2c1ccc1ncoc21,66%
4,CC1(C)CCC[C@]2(C)[C@H]3C(C#N)=C4C=C(O)C(=O)C=C4O[C@@]3(C)CC[C@@H]12,90%
5,CC(C)=C[C@@H]1C[C@H](C)[C@H]2CC[C@H](C)c3c2c1c(C)c1ncoc31 [PSEUDOPTEROXAZOLE],97%

# System: Mycolicibacterium smegmatis
# Assay: Antibiofilm activity against Mycobacterium smegmatis after 5 weeks
# Format: functional
# Details: not given
row,Compound,MIC
1,CC(C)=C/C=C\[C@H](C)[C@H]1CC[C@]2(C)C[C@H]3[C@@H](C(=O)C[C@@]3(C)O)/C(C=O)=C\C[C@@H]12,65 µM
2,CC(C)=C/C=C\[C@H](C)[C@H]1CC[C@]2(C)C[C@@H]3C(C)=CC(=O)[C@H]3/C(C=O)=C\C[C@@H]12,17 µM
3,CC(C)=C/C=C\[C@H](C)[C@H]1CC[C@]2(C)C[C@H]3[C@H](C(=O)C[C@@]3(C)O)/C(C=O)=C\C[C@@H]12,4.1 µM

# Biological target: T1, Phosphotyrosine protein phosphatase (Mycobacterium tuberculosis) (UniProt A0A045ISB3)
# T1 sequence (whole entry): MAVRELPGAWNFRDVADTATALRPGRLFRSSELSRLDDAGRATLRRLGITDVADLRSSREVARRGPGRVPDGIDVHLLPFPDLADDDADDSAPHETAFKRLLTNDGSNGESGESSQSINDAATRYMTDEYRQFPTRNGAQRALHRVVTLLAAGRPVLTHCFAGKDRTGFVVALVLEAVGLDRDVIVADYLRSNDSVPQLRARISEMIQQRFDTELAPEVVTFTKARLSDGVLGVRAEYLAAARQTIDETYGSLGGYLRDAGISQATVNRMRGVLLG
# Assay: Inhibition of Mycobacterium tuberculosis Protein Tyrosine Phosphatase B at 100 uM relative to control
# Details: not given
row,Compound,inhibition
1,COC1=CC(=O)c2c(O)c3c(c(O)c2C1=O)C[C@](C)(O)[C@H](O)[C@H]3O,37%
2,CNC1=CC(=O)c2c(O)c3c(c(O)c2C1=O)C[C@](C)(O)[C@H](O)C3,9.7%
3,CCCNC1=CC(=O)c2c(O)c3c(c(O)c2C1=O)C[C@](C)(O)[C@H](O)[C@H]3O,17.5 to 48.8%
4,COC1=CC(=O)c2c(O)c3c(c(O)c2C1=O)C[C@]1(C)OCO[C@@H]1[C@H]3O,17.5 to 48.8%
5,COC1=CC(=O)c2c(O)c3c(c(O)c2C1=O)C[C@]1(C)OC(C=C(C)C)O[C@@H]1[C@H]3O (stereo partly specified),17.5 to 48.8%
6,CCCCCCSC1=C(SCCCCCC)C(=O)c2c(O)c3c(c(O)c2C1=O)C[C@](C)(O)[C@H](O)[C@H]3O,56.2%
7,CNC1=CC(=O)c2c(O)c3c(c(O)c2C1=O)C[C@](C)(O)[C@H](O)[C@H]3O,17.5 to 48.8%
8,COC1=CC(=O)c2c(O)c3c(c(O)c2C1=O)C[C@]1(C)OC(=O)O[C@@H]1[C@H]3O,17.5 to 48.8%
9,COC1=CC(=O)c2c(cc3c(c2O)C[C@@H](O)[C@@](C)(O)C3)C1=O,17.5 to 48.8%
10,COc1cc(O)c2c(c1O)C(=O)C1=C(C[C@@H](O)[C@@](C)(O)C1)C2=O,17.5 to 48.8%
11,COC1=CC(=O)c2c(O)c3c(c(O)c2C1=O)C[C@]1(C)OC(C)(C)O[C@@H]1[C@H]3O,17.5 to 48.8%
12,COc1cc(O)c2c(c1O)C(=O)c1cc(C)ccc1C2=O,17.5 to 48.8%

# System: Mycolicibacterium phlei
# Assay: Antimycobacterial activity against Mycobacterium phlei assessed as diameter of inhibition zone at 20 ug/disc
# Format: functional
# Details: read-out: IZ
row,Compound,zone of inhibition at 20 µg/disc
1,Cc1cc(O)c2c3c(c(O)c4c(c13)O[C@@H](C)[C@]4(C)CO)C(=O)OC2=O,20 mm
2,CC(C)=CCOc1cc(O)c2c3c(c(O)cc(C)c13)C(=O)OC2=O,16 mm
3,CC(C)=CCOc1cc(O)c2c3c(c(O)cc(C)c13)OC2=O,22 mm

# System: Mycolicibacterium vaccae
# Assay: Antimycobacterial activity against Mycobacterium vaccae assessed as diameter of inhibition zone at 50 ug/disc
# Format: functional
# Details: read-out: IZ
row,Compound,zone of inhibition at 50 µg/disc
1,CC[C@H]1/C=C/[C@@H]([C@@H](O)C=C(C)C)OC(=O)/C(C)=C\CC(=O)Nc2cc(O)cc3c2O[C@@]2(CC1)CC(=O)[C@@H](C)[C@@H]3O2,19 mm
2,CC[C@H]1/C=C/[C@@H]([C@@H](O)C=C(C)C)OC(=O)/C(C)=C\[C@@H]2C(=O)NC3=CC(=O)c4c(cc(C)c(O)c4C(=O)CC1)[C@@]32O,12 mm
3,CC[C@H]1/C=C/[C@H](O)[C@H](C=C(C)C)OC(=O)[C@@]2(C)C=CC(=O)Nc3c2c(O)c2c(c(O)c(C)cc2c3O)C(=O)CC1,11 mm
4,CC[C@H]1/C=C/[C@H](O)[C@H](C=C(C)C)OC(=O)/C(C)=C/CC(=O)Nc2cc(O)cc3c2O/C(=C\C(=O)CC1)C(C)=C3,12 mm
